Measurements as given in patent US20190212340A1, “AN ELISA-LIKE ASSAY FOR QUANTIFYING ENZYMATIC ACTIVITIES OF MONO-ADP-RIBOSYLTRANSFERASES” (University of Southern California, priority 2016, published 2019).

Columns and labels:
[1] = biological target: T1, PARP15 (Homo sapiens, UniProt Q460N3); test: MLISA inhibition of PARP15-catalyzed automodification (Experiment No. 2); assay type: biochemical; conditions: at concentrations up to 100 μM
T1 construct: The catalytic domains of PARP15 (residue 481-678); His6 (N); Factor Xa cleavage site (IEGR) (N); made in house; host or cells: E. coli BL21 (DE3)
T1 sequence (Q460N3 with tags, fused parts or gaps): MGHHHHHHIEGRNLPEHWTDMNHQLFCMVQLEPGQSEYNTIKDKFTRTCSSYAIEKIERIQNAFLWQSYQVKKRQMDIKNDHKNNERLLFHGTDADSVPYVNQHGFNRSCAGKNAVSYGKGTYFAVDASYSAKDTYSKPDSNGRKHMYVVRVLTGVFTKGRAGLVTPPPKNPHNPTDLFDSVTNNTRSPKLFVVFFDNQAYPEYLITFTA

[2] = biological target: T2, PARP15 (Homo sapiens, UniProt Q460N3); conditions: Karlberg et al., J. Biol. Chem. 2015; read-out: Km value of PARP15 reported previously; cited from earlier work
T2 sequence (Q460N3 1-678): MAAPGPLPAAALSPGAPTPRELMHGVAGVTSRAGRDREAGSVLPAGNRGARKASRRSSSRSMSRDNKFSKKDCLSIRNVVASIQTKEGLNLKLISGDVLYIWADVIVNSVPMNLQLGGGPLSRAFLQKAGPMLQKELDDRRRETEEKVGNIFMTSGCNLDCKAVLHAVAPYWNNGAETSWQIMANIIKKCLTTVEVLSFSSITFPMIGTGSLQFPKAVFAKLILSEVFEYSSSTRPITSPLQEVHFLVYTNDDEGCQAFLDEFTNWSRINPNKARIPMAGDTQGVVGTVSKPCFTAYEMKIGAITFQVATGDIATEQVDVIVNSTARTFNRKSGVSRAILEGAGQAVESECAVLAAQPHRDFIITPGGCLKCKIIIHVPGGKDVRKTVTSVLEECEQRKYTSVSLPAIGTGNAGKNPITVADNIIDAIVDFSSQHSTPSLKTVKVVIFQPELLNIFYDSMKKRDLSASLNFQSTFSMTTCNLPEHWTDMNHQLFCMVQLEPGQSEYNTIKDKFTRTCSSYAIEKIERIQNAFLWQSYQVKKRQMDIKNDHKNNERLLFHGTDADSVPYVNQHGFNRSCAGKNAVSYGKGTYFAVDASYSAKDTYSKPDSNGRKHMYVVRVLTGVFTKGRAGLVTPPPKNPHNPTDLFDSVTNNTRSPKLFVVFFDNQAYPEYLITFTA

[3] = biological target: T1, PARP15; test: M2-based ELISA plate inhibition assay, PARP15 (Experiment No. 1); assay type: biochemical; conditions: 500 nM PARP15, 500 μM NAD+, inhibitors at 1, 10 and 100 μM, 2 h
Procedure: The general scheme of ELISA assay is illustrated in FIG. 1. PARP automodification reactions (100 μL) were conducted in 96-wells plate together with the coating process for 2 hours at room temperature. After five times of 200 μL PBST washes (0.1% v/v Tween 20 in PBS buffer, pH 7.4) per well the plates were blocked with 3% BSA dissolved in PBS buffer for 2 hours under room temperature followed by five washes of 200 μL PBST per well. The plates were incubated for 1 hour upon addition of 100 μL of 0.1 μM Macrodomain 2 and then washed five times with 200 μL PBST per well. […] The fluorescence signal was developed by addition of 75 μL QuantaBlu Fluorogenic Peroxidase Substrate and recorded by Synergy H1 Multi-Mode Reader (BioTek, VT). Kinetic parameters were calculated using nonlinear regression Michaelis-Menten model using GraphPad Prism (GraphPad Software). […]
96-well ELISA plates were coated with reactions in triplicates consisting of PARP enzymes (PARP14: 1 μM; PARP15: 500 nM) with various inhibitors at different concentrations (1, 10 and 100 μM) in addition to 500 μM of NAD^+ in Reaction Buffer (50 mM Tris-HCl, pH 7.4, 2 mM dTT). […] To control for any potential inhibition activity related to DMSO, wells containing 1% DMSO were analyzed in triplicates alongside with no inhibitor control wells and 100 μM control inhibitor wells.

Compound	inhibition effects on PARP15 activity [1]	other results
CN(C)c1ccc(O)c2c1C[C@H]1C[C@H]3[C@H](N(C)C)C(O)=C(C(N)=O)C(=O)[C@@]3(O)C(O)=C1C2=O [Minocin]	no significant inhibition effects	–
NC(=O)c1ccc[n+]([C@@H]2O[C@H](COP(=O)([O-])OP(=O)(O)OC[C@H]3O[C@@H](n4cnc5c(N)ncnc54)[C@H](O)[C@@H]3O)[C@@H](O)[C@H]2O)c1 [NAD^+, Nicotinamide adenine dinucleotide]	–	Km [2]: 5.8 ± 1.9 µM
O=C(c1cc(Cc2n[nH]c(=O)c3ccccc23)ccc1F)N1CCN(C(=O)C2CC2)CC1 [Olaparib]	–	inhibition of PARP15 (fluorescence intensity) [3]: better inhibitory effect at 100 μM but it is less potent comparing to other inhibitor

More lines, main results first:

inhibition effects on PARP15 activity [1]	Compound	other results
no significant inhibition effects	Nc1ncnc2[nH]cnc12 [Adenine]	–
no significant inhibition effects	O=c1[nH]c(-c2ccc(C(F)(F)F)cc2)nc2c1CSCC2 [XAV939]	–
